Drawing on ChEMBL document CHEMBL1133764, “Synthesis and cytokine modulation properties of pyrrolo[2, 3-d]-4-pyrimidone nucleosides” (2000), this text covers Concentration and IFN gamma concentration for 27 compounds.

Assay [1] relates to T-cell line. Description: Effect (10 uM) on PMA/ION-stimulated T-cell expression of the type 1 cytokine,TNF-alpha was determined in cell free supernatants by ELISA. The class given is functional, cell-based. Particulars: Homo sapiens. In general terms: An ELISA detects its analyte on a solid surface through an enzyme-linked reagent.
Assay [2] deals with T-cell line. Description: Effect (10 uM) on PMA/ION-stimulated T-cell expression of the type 1 cytokine,IL-2 was determined in cell free supernatants by ELISA. The format is functional, cell-based. The following applies: Homo sapiens.
In assay [3] the test system is T-cell line. Description: (§1) Effect (10 uM) on PMA/ION-stimulated T-cell expression of the type 1 cytokine, IFNgamma was determined in cell free supernatants by ELISA. The class given is functional, Homo sapiens.
Assay [4] concerns T-cell line. The assay is described as follows: Effect (10 uM) on PMA/ION-stimulated T-cell expression of the type 1 cytokine, IL-5 was determined in cell free supernatants by ELISA. The format is functional, cell-based. The following applies: Homo sapiens.
Assay [5] concerns T-cell line. Description: Effect at 10 uM on PMA/ION-stimulated T-cell expression of the type 2 cytokine IL-4, determined in cell free supernatants by ELISA. The class given is functional, cell-based. The following applies: Homo sapiens.
The subject of assay [6] is T-cell line. Description: Effect (10 uM) on PMA/ION-stimulated T-cell expression of the type 1 cytokine IFN gamma, which was determined in cell free supernatants by ELISA. The following applies: Homo sapiens. The class given is functional, cell-based.
The test system of assay [7] is T-cell line. The assay is described as follows: Effect (10 uM) on PMA/ION-stimulated T-cell expression of the type 2 cytokine IL-4, which was determined in cell free supernatants by ELISA. The format is functional, cell-based. Particulars: Homo sapiens.
For assay [8], the system named is T-cell line. Description: Effect on PMA/ION-stimulated T-cell expression of the type 1 cytokine, IFNgamma was determined in cell free supernatants by ELISA. The following applies: Homo sapiens. The format is functional, cell-based.
For assay [9], the system named is T-cell line. Description: Effect on PMA/ION-stimulated T-cell expression of the type 1 cytokine,IL-2 was determined in cell free supernatants by ELISA. The format is functional, cell-based. The following applies: Homo sapiens.
Assay [10] deals with T-cell line. The assay is described as follows: Effect on PMA/ION-stimulated T-cell expression of the type 1 cytokine,IL-5 was determined in cell free supernatants by ELISA. The class given is functional, cell-based. Particulars: Homo sapiens.
In assay [11] the test system is T-cell line. The assay is described as follows: Effect on PMA/ION-stimulated T-cell expression of the type 1 cytokine,TNF-alpha was determined in cell free supernatants by ELISA. The format is functional, cell-based. Particulars: Homo sapiens.
For assay [12], the system named is T-cell line. Description: Effect at 10 uM on PMA/ION-stimulated T-cell expression of the type 1 cytokine IFNgamma, determined in cell free supernatants by ELISA. The following applies: Homo sapiens. The class given is functional, cell-based.
Assay [13] concerns T-cell line. The assay is described as follows: Effect (10 uM) on PMA/ION-stimulated T-cell expression of the type 2 cytokine, IL-4 was determined in cell free supernatants by ELISA. The class given is functional, cell-based. Particulars: Homo sapiens.
In assay [14] the test system is T-cell line. Description: Effect (10 uM) on PMA/ION-stimulated T-cell expression of the type 1 cytokine IFNgamma, which was determined in cell free supernatants by ELISA. The class given is functional, cell-based. Particulars: Homo sapiens.
The test system of assay [15] is T-cell line. Description: Effect (10 uM) on PMA/ION-stimulated T-cell expression of the type 1 cytokine IL-2, which was determined in cell free supernatants by ELISA. The format is functional, cell-based. Particulars: Homo sapiens.
For assay [16], the system named is T-cell line. Description: Effect (10 uM) on PMA/ION-stimulated T-cell expression of the type 2 cytokine IL-5, which was determined in cell free supernatants by ELISA. The format is functional, cell-based. Particulars: Homo sapiens.
Assay [17] concerns T-cell line. Description: Effect (10 uM) on PMA/ION-stimulated T-cell expression of the type 1 cytokine TNF-alpha, which was determined in cell free supernatants by ELISA. The class given is functional, cell-based. Particulars: Homo sapiens.
The subject of assay [18] is T-cell line. The description is as §1. The class given is functional, cell-based. The following applies: Homo sapiens.

For `N=C(N)c1cn([C@@H]2O[C@H](CO)[C@@H](O)[C@H]2O)c2nc[nH]c(=O)c12`, the Concentration was less than 968 pg/mL with T-cell line [1], less than 12700 pg/mL with T-cell line [2], less than 127 pg/mL with T-cell line [4] and less than 557 pg/mL in the assay with T-cell line [5]. The IFN gamma concentration with T-cell line [3] is less than 5919 pg/mL.

Consider `C[C@H]1OC(n2cc(C(=N)NO)c3c(O)ncnc32)[C@H](O)[C@@H]1O` (single isomer, unassigned; (+)), for which the Concentration in the assay on T-cell line [6] was 10600 pg/mL; with T-cell line [7], 149 pg/mL.

Regarding `NC(=S)c1cn(C2O[C@H](CO)[C@@H](O)[C@H]2O)c2ncnc(O)c12` (stereo not given in full), the Concentration in the assay with T-cell line [8] was determined as 7480 pg/mL; in the assay with T-cell line [9], 23000 pg/mL; with T-cell line [10], 59 pg/mL; in the assay on T-cell line [5], 176 pg/mL; in the assay with T-cell line [11], 2220 pg/mL.

For `C[C@@H](O)[C@H]1OC(n2cc(C(=N)N)c3c(O)ncnc32)[C@H](O)[C@@H]1O` (single isomer, unassigned; (+)), the Concentration came out at 12100 pg/mL with T-cell line [12] and 159 pg/mL in the assay on T-cell line [5].

For `C[C@H]1OC(n2cc(C#N)c3c(O)ncnc32)[C@H](O)[C@@H]1O` (single isomer, unassigned; (+)), the Concentration in the assay with T-cell line [12] was determined as 9140 pg/mL; with T-cell line [5], 147 pg/mL.

For the compound `C[C@H](O)[C@H]1OC(n2cc(C(=N)NO)c3c(O)ncnc32)[C@H](O)[C@@H]1O` (single isomer, unassigned; (+)), the results for the Concentration with T-cell line [6] and in the assay with T-cell line [7] were 11400 pg/mL and 162 pg/mL, respectively.

As to `C[C@]1(CO)OC(n2cc(C(=N)N)c3c(O)ncnc32)[C@H](O)[C@@H]1O` (single isomer, unassigned; (+)), the Concentration in the assay with T-cell line [6] turned out to be 9550 pg/mL; with T-cell line [7], 144 pg/mL.

Turning to `N=C(N)c1cn(C2CCC(CO)O2)c2ncnc(O)c12` (single isomer, unassigned; (+)), the results for the Concentration in the assay on T-cell line [6] and in the assay on T-cell line [7] were 13300 pg/mL and 234 pg/mL, respectively.

In the case of `NCc1cn([C@@H]2O[C@H](CO)[C@@H](O)[C@H]2O)c2nc[nH]c(=O)c12`, the Concentration with T-cell line [12] is 9340 pg/mL; in the assay on T-cell line [5], 125 pg/mL.

For `C[C@H](O)[C@H]1OC(n2cc(C#N)c3c(O)ncnc32)[C@H](O)[C@@H]1O` (single isomer, unassigned; (+)), the Concentration is 10900 pg/mL in the assay on T-cell line [12] and 146 pg/mL with T-cell line [5].

Consider `N/C(=N\O)c1cn([C@@H]2O[C@H](CO)[C@@H](O)[C@@H]2O)c2nc[nH]c(=O)c12`, for which the results for the Concentration in the assay on T-cell line [6] and in the assay with T-cell line [7] were 10400 pg/mL and 132 pg/mL, respectively.

On to `N=C(NN)c1cn([C@@H]2O[C@H](CO)[C@@H](O)[C@@H]2O)c2nc[nH]c(=O)c12`, for which the Concentration in the assay on T-cell line [12] turned out to be 9860 pg/mL; in the assay on T-cell line [5], 117 pg/mL.

On to `C[C@H](O)[C@H]1OC(n2cc(C(=N)N)c3c(O)ncnc32)[C@H](O)[C@@H]1O` (single isomer, unassigned; (+)), for which the Concentration in the assay on T-cell line [12] worked out at 10700 pg/mL; with T-cell line [5] it was 146 pg/mL.

On to `CCCCCCCCCCCCC(=O)O[C@@H]1[C@@H](C)[C@@]2(O)[C@@H](C=C(CO)C[C@]3(O)C(=O)C(C)=C[C@@H]23)[C@@H]2C(C)(C)[C@]12OC(C)=O.C[C@H](CCC(=O)O)C[C@H](C)C[C@H](C)/C(O)=C/C(=O)[C@H](C)C[C@H](C)C/C=C/[C@@H](C)[C@@H](O)[C@@H](C)[C@@H](O)C[C@@H]1CC[C@@](C)([C@H]2CC[C@@](C)([C@@H](C)O)O2)O1`, for which the Concentration with T-cell line [8] turned out to be 10400 pg/mL; in the assay with T-cell line [12] it was 10400 pg/mL; in the assay with T-cell line [9], 27700 pg/mL; with T-cell line [13], 162 pg/mL; in the assay on T-cell line [10] it was 93 pg/mL; in the assay on T-cell line [11], 2150 pg/mL.

Turning to `N/C(=N\O)c1cn([C@@H]2O[C@H](CO)[C@@H](O)[C@H]2O)c2nc[nH]c(=O)c12`, the Concentration in the assay on T-cell line [14] came to 7270 pg/mL; with T-cell line [15], 18000 pg/mL; in the assay on T-cell line [16], 73 pg/mL; in the assay with T-cell line [17], 1590 pg/mL; with T-cell line [7] it was 236 pg/mL.

As for `NCc1cn([C@@H]2O[C@H](CO)[C@@H](O)[C@@H]2O)c2nc[nH]c(=O)c12`, the figures for the Concentration in the assay on T-cell line [12] and in the assay with T-cell line [5] were 10800 pg/mL and 142 pg/mL, respectively.

Regarding `C[C@]1(CO)OC(n2cc(C#N)c3c(O)ncnc32)[C@H](O)[C@@H]1O` (single isomer, unassigned; (+)), the Concentration with T-cell line [12] is 9030 pg/mL; with T-cell line [5], 147 pg/mL.

Take `C[C@@H](O)[C@H]1OC(n2cc(C#N)c3c(O)ncnc32)[C@H](O)[C@@H]1O` (stereo not given in full): the Concentration in the assay with T-cell line [12] came out at 13300 pg/mL; in the assay on T-cell line [5] it was 160 pg/mL.

Turning to `C[C@@H](O)[C@H]1OC(n2cc(C(=N)NO)c3c(O)ncnc32)[C@H](O)[C@@H]1O` (stereo not given in full), the results for the Concentration in the assay on T-cell line [6] and with T-cell line [7] were 12300 pg/mL and 186 pg/mL, respectively.

For the compound `NC(=O)c1cn(C2O[C@H](CO)[C@@H](O)[C@H]2O)c2ncnc(O)c12` (single isomer, unassigned; (+)), the Concentration is 2170 pg/mL with T-cell line [1]; 9140 pg/mL in the assay with T-cell line [18]; 24400 pg/mL in the assay on T-cell line [2]; 67 pg/mL with T-cell line [4]; 183 pg/mL in the assay with T-cell line [5].

Turning to `N#CC1=CN([C@H]2C[C@H](O)[C@@H](CO)O2)C2=NC=NC(=O)C12` (single isomer, unassigned; (+)), the figures for the Concentration in the assay on T-cell line [12] and in the assay with T-cell line [5] were 11900 pg/mL and 194 pg/mL, respectively.

In the case of `N/C(=N\O)c1cn([C@H]2O[C@@H](CO)[C@H](O)[C@@H]2O)c2nc[nH]c(=O)c12`, the Concentration in the assay with T-cell line [6] amounted to 9660 pg/mL; in the assay with T-cell line [7], 142 pg/mL.

As to `N/C(=N\O)c1cn(C2CCC(CO)O2)c2ncnc(O)c12` (single isomer, unassigned; (+)), the Concentration with T-cell line [6] is 11200 pg/mL; in the assay with T-cell line [7], 152 pg/mL.

Consider `N=C(NN)c1cn([C@@H]2O[C@H](CO)[C@@H](O)[C@H]2O)c2nc[nH]c(=O)c12`, for which the Concentration with T-cell line [12] was found to be 11900 pg/mL; in the assay on T-cell line [5], 207 pg/mL.

For `N=C(N)C1=CN([C@H]2C[C@H](O)[C@@H](CO)O2)C2=NC=NC(=O)C12` (single isomer, unassigned; (+)), the Concentration in the assay with T-cell line [6] turned out to be 14700 pg/mL; in the assay on T-cell line [7] it was 258 pg/mL.

For the compound `C[C@H]1OC(n2cc(C(=N)N)c3c(O)ncnc32)[C@H](O)[C@@H]1O` (single isomer, unassigned; (+)), the Concentration with T-cell line [12] is 1310 pg/mL; with T-cell line [5] it was 152 pg/mL.

Turning to `N=C(N)c1cn([C@@H]2O[C@H](CO)[C@@H](O)[C@@H]2O)c2nc[nH]c(=O)c12`, the Concentration worked out at 7790 pg/mL in the assay on T-cell line [12] and 131 pg/mL in the assay with T-cell line [5].
